The text below walks through data of patent US11896592B2, “Certain triazolopyridines and triazolopyrazines, compositions thereof and methods of use therefor” (Hutchison Medipharma Limited, priority 2009, dated 2024).

Read-outs that look alike come from different tables or passages of the source.

The target in the assay is T1, Recombinant human Met (c-Met) (Homo sapiens, UniProt P08581).
T1 construct: purchased Invitrogen PV3143
The assay is described as follows: Inhibition of c-Met kinase activity using Transcreener FP assay. Type of assay: biochemical. To be noted: Poly E4Y substrate, 28° C. 45 min.

Setting [1] is: read-out: IC50, inhibition of c-Met kinase activity.

T1 sequence (P08581 956-1390 limits assumed): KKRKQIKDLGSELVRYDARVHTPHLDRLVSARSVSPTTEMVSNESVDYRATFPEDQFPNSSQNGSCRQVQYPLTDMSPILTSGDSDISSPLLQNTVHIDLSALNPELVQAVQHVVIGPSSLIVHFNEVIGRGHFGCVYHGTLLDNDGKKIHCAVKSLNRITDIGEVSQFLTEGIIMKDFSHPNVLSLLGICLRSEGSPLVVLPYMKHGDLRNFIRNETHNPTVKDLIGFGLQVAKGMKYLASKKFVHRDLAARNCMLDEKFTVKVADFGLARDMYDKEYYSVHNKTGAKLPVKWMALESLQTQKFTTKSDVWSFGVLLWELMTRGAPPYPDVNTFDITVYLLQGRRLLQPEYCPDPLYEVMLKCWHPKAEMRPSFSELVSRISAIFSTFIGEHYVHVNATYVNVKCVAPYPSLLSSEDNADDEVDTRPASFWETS

The term IC50 denotes the concentration needed to halve the response being measured. Turning to `CC(c1ccc2ncsc2c1)n1nnc2ncc(-c3cnn(C)c3)nc21` (stereo not shown) [Compound 19], under setting [1], the IC50 is 1 to 100 nM. Same read-out and setting: with `FC(F)(F)Cn1cc(-c2cnc3nnn(Cc4ccc5nccn5n4)c3n2)cn1` [Compound 287] the figure was 1 to 100 nM; with `N#Cc1ccc(-c2ccc3nnn(Cc4ccc5ncccc5c4)c3n2)s1` [Compound 102], 1 to 100 nM. Take `Cc1cnc2ccc(Cn3nnc4ncc(-c5cnn(CCO)c5)nc43)cn12` [Compound 305]: the IC50 under setting [1] was 1 to 100 nM. Regarding `c1cnc2ccc(Cn3nnc4ccc(-c5cnn(C6CCNCC6)c5)nc43)cc2c1` [Compound 94], the 50% inhibitory concentration (IC50) under setting [1] was in the range of 100 to 1000 nM. The same measure, in the same setting: with `c1nn(C2CNC2)cc1-c1cnc2nnn(Cc3cc4[nH]ncc4s3)c2n1` [Compound 283] the figure was 1 to 100 nM; with `Cn1cc(-c2ccc3nnn(C4(c5ccc6ncccc6c5)CC4)c3n2)cn1` [Compound 122], 100 to 1000 nM; with `CCOC(=O)Cn1cc(-c2ccc3nnn(Cc4ccc5ncccc5c4)c3n2)cn1` [Compound 65], 1 to 100 nM. For the compound `CC(C)n1cc(-c2cnc3nnn(Cc4ccc5nccn5c4)c3n2)cn1` [Compound 34], the IC50 under setting [1] lay in the range of 1 to 100 nM.

As to `COc1ccc(Nc2ccc3nnn(Cc4ccc5ncccc5c4)c3n2)nc1` [Compound 234], under setting [1], the IC50 lay within 100 to 1000 nM.

As to `OCCn1cc(-c2cnc3nnn(Cc4ccc5ncsc5c4)c3n2)cn1` [Compound 12], under setting [1], the IC50 fell in the range of 1 to 100 nM.

As for `OCCn1cnc(-c2ccc3nnn(Cc4ccc5ncccc5c4)c3n2)c1` [Compound 109], the half-maximal inhibitory concentration (IC50) under setting [1] fell in the range of 100 to 1000 nM. Take `FC(F)(F)Cn1cc(-c2cnc3nnn(Cc4ccc5ncnn5c4)c3n2)cn1` [Compound 52]: the IC50 under setting [1] was 1 to 100 nM. On the same count and under the same terms, then `CS(=O)(=O)n1cc(-c2ccc3nnn(Cc4ccc5ncccc5c4)c3n2)cn1` [Compound 150], with 1 to 100 nM; and `CCn1cc(-c2cnc3nnn(Cc4n[nH]c5ncccc45)c3n2)cn1` [Compound 49], with 1 to 100 nM. Still for that read-out and setting: with `OCCn1cc(-c2cnc3nnn(Cc4ccc5ncc(CO)n5c4)c3n2)cn1` [Compound 306] the figure was 1 to 100 nM; with `Cn1cc(-c2ccc3nnn(Cc4cc5[nH]ncc5s4)c3n2)cn1` [Compound 132], 1 to 100 nM; with `c1cnc2ccc(Cn3nnc4ncc(Sc5ccncc5)nc43)cc2c1` [Compound 248], 1 to 100 nM. Turning to `c1cnc2ccc(Cn3nnc4ccc(-c5ccc(N6CCOCC6)nc5)nc43)cc2c1` [Compound 63], the IC50 under setting [1] was in the range of 1 to 100 nM. The same measure, in the same setting: then `c1cc2sc(Cn3nnc4ncc(-c5cnn(C6CCOCC6)c5)nc43)cc2cn1` [Compound 22], with 100 to 1000 nM.

`OCCn1cc(-c2ccc3nnn(Cc4cc5cnccc5s4)c3n2)cn1` [Compound 74]: the IC50 under setting [1] lay in the range of 100 to 1000 nM. For the compound `Cn1ccc(Nc2ccc3nnn(Cc4ccc5ncccc5c4)c3n2)n1` [Compound 189], the IC50 under setting [1] was in the range of 1 to 100 nM. On the same count and under the same terms, then `c1cncc(Nc2ccc3nnn(Cc4ccc5ncccc5c4)c3n2)c1` [Compound 237], with 1 to 100 nM; and `FC(F)(F)c1cccc(Nc2cnc3nnn(Cc4ccc5ncccc5c4)c3n2)n1` [Compound 221], with 1 to 100 nM; and `Cn1cc(-c2ccc3nnn(Cc4ccc5ncsc5n4)c3n2)cn1` [Compound 142], with 100 to 1000 nM. Still for that read-out and setting: then `c1n[nH]cc1-c1cnc2nnn(Cc3cc4[nH]ncc4s3)c2n1` [Compound 44], with 1 to 100 nM; and `CCn1cc(-c2cnc3nnn(Cc4cc5c(cnn5CC)s4)c3n2)cn1` [Compound 37], with 100 to 1000 nM. Turning to `c1nn(C2COC2)cc1-c1cnc2nnn(Cc3cc4[nH]ncc4s3)c2n1` [Compound 296], the IC50 under setting [1] lay in the range of 100 to 1000 nM. The same measure, in the same setting: with `CC(O)Cn1cc(-c2ccc3nnn(Cc4ccc5ncccc5c4)c3n2)cn1` (stereo not shown) [Compound 100] the figure was 100 to 1000 nM; with `c1cncc(Nc2cnc3nnn(Cc4ccc5ncccc5c4)c3n2)c1` [Compound 212], 1 to 100 nM.

For the compound `CC(c1ccc2nccn2c1)n1nnc2ncc(-c3cn[nH]c3)nc21` (stereo not shown) [Compound 328], under setting [1], the IC50 lay in the range of 1 to 100 nM. Consider `Cc1coc(Nc2cnc3nnn(Cc4ccc5ncccc5c4)c3n2)n1` [Compound 199], for which the IC50 under setting [1] was 1 to 100 nM. The same measure, in the same setting: then `N#Cc1ccc(-c2ccc3nnn(Cc4ccc5ncccc5c4)c3n2)cn1` [Compound 103], with 100 to 1000 nM; and `COCCOc1ccnc(Nc2cnc3nnn(Cc4ccc5ncccc5c4)c3n2)c1` [Compound 185], with 1 to 100 nM. On the same count and under the same terms, then `COCCNc1ccc(-c2ccc3nnn(Cc4ccc5ncccc5c4)c3n2)cn1` [Compound 82], with 1 to 100 nM; and `c1ccc(Oc2cnc3nnn(Cc4ccc5ncccc5c4)c3n2)nc1` [Compound 257], with 100 to 1000 nM; and `C[C@H](c1ccc2ncccc2c1)n1nnc2ccc(-c3cnn(CCO)c3)nc21` [Compound 78], with 100 to 1000 nM. Take `CC(c1cc2[nH]ncc2s1)n1nnc2ncc(-c3cnn(C)c3)nc21` (stereo not shown) [Compound 299]: the IC50 under setting [1] lay within 100 to 1000 nM. Turning to `OCCn1cc(-c2ccc3nnn(Cc4ccc5ncsc5c4)c3n2)cn1` [Compound 73], the IC50 under setting [1] is 100 to 1000 nM. As for `OCCn1cc(-c2ccc3nnn(Cc4ccc5ncnn5c4)c3n2)cn1` [Compound 126], under setting [1], the IC50 lay within 100 to 1000 nM.

Regarding `CN(c1ccncc1)c1cnc2nnn(Cc3ccc4ncccc4c3)c2n1` [Compound 177], the IC50 under setting [1] is 1 to 100 nM. On the same count and under the same terms, with `c1cn2cc(Cn3nnc4ccc(-c5cnn(C6CCOCC6)c5)nc43)ccc2n1` [Compound 143] the figure was 100 to 1000 nM; with `c1cnc2ccc(Cn3nnc4ccc(OC5CCOCC5)nc43)cc2c1` [Compound 249], 100 to 1000 nM; with `COCc1cnc2ccc(C(C)n3nnc4ncc(-c5cnn(C)c5)nc43)cn12` (racemic) [Compound 318, 1-(1-(3-(methoxymethyl)imidazo[1,2-a]pyridin-6-yl)ethyl)-6-(1-methyl-1H-pyrazol-4-yl)-1H-[1,2,3]triazolo[4,5-b]pyrazine], 1 to 100 nM.

For the compound `COCCOc1ncccc1Nc1cnc2nnn(Cc3ccc4ncccc4c3)c2n1` [Compound 216], the IC50 under setting [1] is 100 to 1000 nM. Still for that read-out and setting: with `COCCn1cc(-c2cnc3nnn(Cc4cc5cnccc5s4)c3n2)cn1` [Compound 23] the figure was 100 to 1000 nM. On the same count and under the same terms, with `OCCn1cc(-c2cnc3nnn(Cc4ccn5ncnc5c4)c3n2)cn1` [Compound 317] the figure was 100 to 1000 nM. Still for that read-out and setting: then `OCCn1cc(-c2cnc3nnn(Cc4ccc5ncnn5c4)c3n2)cn1` [Compound 54], with 1 to 100 nM; and `CS(=O)(=O)Nc1ccc(-c2ccc3nnn(Cc4ccc5ncccc5c4)c3n2)cc1` [Compound 84], with 1 to 100 nM; and `c1cc(-c2cnc3nnn(Cc4ccc5nccn5c4)c3n2)ccn1` [Compound 275], with 1 to 100 nM.

`OCCOc1ccnc(Nc2cnc3nnn(Cc4ccc5ncccc5c4)c3n2)c1` [Compound 201]: the IC50 under setting [1] was 100 to 1000 nM. Same read-out and setting: then `c1nn(C2CCNCC2)cc1-c1cnc2nnn(Cc3cc4[nH]ncc4s3)c2n1` [Compound 17], with 100 to 1000 nM. Still for that read-out and setting: with `N#Cc1ccc(-c2cnc3nnn(Cc4ccn5nccc5c4)c3n2)cn1` [Compound 302] the figure was 1 to 100 nM. Same read-out and setting: with `COCCNc1ccnc(Nc2cnc3nnn(Cc4ccc5ncccc5c4)c3n2)c1` [Compound 204] the figure was 100 to 1000 nM; with `COc1ncc(-c2cnc3nnn(C(C)c4ccc5nccn5c4)c3n2)cc1NS(C)(=O)=O` (stereo not shown) [Compound 329], 1 to 100 nM. In the case of `Cn1cc(-c2ccc3nnn(Cc4ccc5ncccc5c4F)c3n2)cn1` [Compound 129], under setting [1], the IC50 lay in the range of 1 to 100 nM. Same read-out and setting: then `c1cnc2ccc(Cn3nnc4ncc(Oc5ccncc5)nc43)cc2c1` [Compound 250], with 1 to 100 nM.

With `c1cc2sc(Cn3nnc4ncc(-c5cnn(C6CCNCC6)c5)nc43)cc2cn1` [Compound 18], the concentration for half-maximal inhibition (IC50) under setting [1] was in the range of 100 to 1000 nM. With `c1cnc2ccc(Cn3nnc4ncc(Nc5cc[nH]n5)nc43)cc2c1` [Compound 198], the IC50 under setting [1] lay within 1 to 100 nM.

For `Cn1cc(-c2cnc3nnn(Cc4ccc5ncsc5n4)c3n2)cn1` [Compound 289], the IC50 under setting [1] lay within 100 to 1000 nM. For `C[C@H](c1ccc2nccn2c1)n1nnc2ncc(-c3cnn(C)c3)nc21` [Compound 271], the concentration for half-maximal inhibition (IC50) (IC50, inhibition of c-Met kinase activity) was in the range of 1 to 100 nM. Turning to `CC(c1ccc2ncccc2c1)n1nnc2ccc(-c3cnn(CCO)c3)nc21` (racemic) [Compound 332], the IC50 under setting [1] was in the range of 1 to 100 nM. The same measure, in the same setting: with `N#CCn1cc(-c2cnc3nnn(Cc4ccc5nccn5c4)c3n2)cn1` [Compound 35] the figure was 1 to 100 nM; with `CC(c1cc2cnccc2s1)n1nnc2ncc(-c3cnn(CCO)c3)nc21` (stereo not shown) [Compound 21], 1 to 100 nM.
